Test results from patent US20200291018A1, “TAM KINASE INHIBITORS” (SYROS PHARMACEUTICALS, INC., priority 2017, published 2020).

Legend:
[1] = biological target: T1, TYRO3 (Homo sapiens, UniProt Q06418); experiment: TR-FRET kinase activity assay, TYRO3; assay type: biochemical; details: ATP at Km, 60 minutes
T1 sequence (Q06418 41-890): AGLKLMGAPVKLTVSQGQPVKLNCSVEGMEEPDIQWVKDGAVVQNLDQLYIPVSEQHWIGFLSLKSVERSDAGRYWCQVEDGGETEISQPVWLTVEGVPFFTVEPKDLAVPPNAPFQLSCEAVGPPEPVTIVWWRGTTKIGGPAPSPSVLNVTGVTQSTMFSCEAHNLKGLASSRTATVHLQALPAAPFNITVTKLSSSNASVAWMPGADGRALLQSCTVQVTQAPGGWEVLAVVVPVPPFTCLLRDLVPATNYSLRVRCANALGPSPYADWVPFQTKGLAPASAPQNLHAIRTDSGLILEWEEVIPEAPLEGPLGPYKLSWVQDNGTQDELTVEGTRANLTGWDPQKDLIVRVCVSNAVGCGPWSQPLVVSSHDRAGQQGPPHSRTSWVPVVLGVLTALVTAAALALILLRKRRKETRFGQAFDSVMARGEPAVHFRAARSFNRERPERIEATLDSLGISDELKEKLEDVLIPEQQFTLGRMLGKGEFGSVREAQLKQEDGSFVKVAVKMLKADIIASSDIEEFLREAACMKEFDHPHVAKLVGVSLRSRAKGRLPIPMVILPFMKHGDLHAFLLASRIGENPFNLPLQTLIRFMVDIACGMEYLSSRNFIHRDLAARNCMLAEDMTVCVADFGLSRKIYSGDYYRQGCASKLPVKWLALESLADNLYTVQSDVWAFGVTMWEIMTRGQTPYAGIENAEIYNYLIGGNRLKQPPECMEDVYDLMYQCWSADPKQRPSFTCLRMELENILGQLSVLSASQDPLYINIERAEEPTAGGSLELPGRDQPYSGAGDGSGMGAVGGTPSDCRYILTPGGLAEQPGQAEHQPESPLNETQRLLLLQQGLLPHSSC
Outline: (§1)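 Steps: compound, enzyme and labeled peptide combined at RT (50 mM HEPES pH 7.5, 10 mM MgCl2, 1 mM DTT); ATP added at Km; 60 min reaction; EDTA quench; Eu-antibody development 30 min in darkness; TR-FRET measured and IC50 fitted.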

[2] = biological target: T2, MERTK (Homo sapiens, UniProt Q12866); experiment: TR-FRET kinase activity assay, MERTK; assay type: biochemical; details: for IC50: TR-FRET activity assay, ATP at Km, 60 minutes, read-out: Mer IC50; for Mer/Flt3 ratio (FLT3 IC50/Mer IC50): ratio calculated as FLT3 IC50/Mer IC50
T2 sequence (Q12866 21-999): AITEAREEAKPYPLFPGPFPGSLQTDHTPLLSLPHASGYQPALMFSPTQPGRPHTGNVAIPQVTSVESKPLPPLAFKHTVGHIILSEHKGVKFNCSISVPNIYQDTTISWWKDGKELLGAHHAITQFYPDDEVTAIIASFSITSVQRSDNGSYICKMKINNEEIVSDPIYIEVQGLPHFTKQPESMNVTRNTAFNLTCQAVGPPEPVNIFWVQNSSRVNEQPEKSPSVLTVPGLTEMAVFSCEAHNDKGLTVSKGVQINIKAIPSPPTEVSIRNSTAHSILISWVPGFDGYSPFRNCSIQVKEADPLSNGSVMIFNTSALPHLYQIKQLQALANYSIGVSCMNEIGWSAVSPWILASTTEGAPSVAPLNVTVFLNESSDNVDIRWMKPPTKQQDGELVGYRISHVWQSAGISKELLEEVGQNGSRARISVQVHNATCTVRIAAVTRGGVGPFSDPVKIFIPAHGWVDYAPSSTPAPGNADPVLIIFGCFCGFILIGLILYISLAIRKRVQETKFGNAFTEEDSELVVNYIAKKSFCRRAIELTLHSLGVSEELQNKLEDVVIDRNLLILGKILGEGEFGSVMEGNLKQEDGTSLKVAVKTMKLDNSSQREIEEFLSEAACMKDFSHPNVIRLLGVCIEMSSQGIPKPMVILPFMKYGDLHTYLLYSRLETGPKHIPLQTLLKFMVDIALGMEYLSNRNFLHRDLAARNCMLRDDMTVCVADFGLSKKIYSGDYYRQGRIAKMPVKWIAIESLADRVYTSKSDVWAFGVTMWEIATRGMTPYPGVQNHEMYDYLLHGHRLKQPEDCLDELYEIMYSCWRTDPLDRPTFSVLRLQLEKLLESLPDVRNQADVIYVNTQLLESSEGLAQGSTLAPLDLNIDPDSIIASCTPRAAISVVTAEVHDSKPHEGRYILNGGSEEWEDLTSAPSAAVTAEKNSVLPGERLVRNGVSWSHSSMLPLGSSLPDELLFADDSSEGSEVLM
Outline: as §1

Structure (SMILES) | IC50 [1] | IC50 [2] | Mer/Flt3 ratio (FLT3 IC50/Mer IC50) [2]
CCCC(C)Nc1ncc2c(OC3CCC(F)(F)CC3)ncc([C@H]3CC[C@H](O)CC3)c2n1 (stereo partly drawn) [Compound 153] | 100 to 1000 nM | ≤ 100 nM | +++ (a ratio of >100)
CCCC(C)Nc1ncc2c(NC3CCN(C)CC3)ncc([C@H]3CC[C@H](O)CC3)c2n1 (stereo partly drawn) [Compound 154] | ≤ 100 nM | ≤ 100 nM | +++ (a ratio of >100)
CCCC(C)Nc1ncc2c(N3CCC(NC)CC3)ncc([C@H]3CC[C@H](O)CC3)c2n1 (stereo partly drawn) [Compound 155] | ≤ 100 nM | ≤ 100 nM | +++ (a ratio of >100)
CCCC(C)Nc1ncc2c(N3CC[C@@H](N(C)C)C3)ncc([C@H]3CC[C@H](O)CC3)c2n1 (stereo partly drawn) [Compound 156] | ≤ 100 nM | ≤ 100 nM | ++ (a ratio of between 10 and 100)
CCCC(C)Nc1ncc2c(OC[C@H]3CC[C@@H](O)CC3)ncc([C@H]3CC[C@H](O)CC3)c2n1 (stereo partly drawn) [Compound 157] | ≤ 100 nM | ≤ 100 nM | ++ (a ratio of between 10 and 100)
CCCC(C)Nc1ncc2c(NC3CCNCC3)ncc([C@H]3CC[C@H](O)CC3)c2n1 (stereo partly drawn) [Compound 158] | ≤ 100 nM | ≤ 100 nM | +++ (a ratio of >100)
CCCC(C)Nc1ncc2c(N3CC[C@H](N(C)C)C3)ncc([C@H]3CC[C@H](O)CC3)c2n1 (stereo partly drawn) [Compound 159] | ≤ 100 nM | ≤ 100 nM | ++ (a ratio of between 10 and 100)
CCCC(C)Nc1ncc2c(OC[C@H]3CC[C@H](O)CC3)ncc([C@H]3CC[C@H](O)CC3)c2n1 (stereo partly drawn) [Compound 160] | ≤ 100 nM | ≤ 100 nM | +++ (a ratio of >100)
CCCC(C)Nc1ncc2c(OC3CC(C)(C)N(C)C(C)(C)C3)ncc([C@H]3CC[C@H](O)CC3)c2n1 (stereo partly drawn) [Compound 161] | ≤ 100 nM | ≤ 100 nM | +++ (a ratio of >100)
CN1CCC(Nc2ncc3c(OC4CCNCC4)ncc([C@H]4CC[C@H](O)CC4)c3n2)C1=O (stereo partly drawn) [Compound 162] | 1000 to 10000 nM | 1000 to 10000 nM | + (a ratio of >2.0 and <10)
Cc1nccn1CCNc1ncc2c(OC3CCNCC3)ncc([C@H]3CC[C@H](O)CC3)c2n1 [Compound 163] | ≤ 100 nM | 1000 to 10000 nM | + (a ratio of >2.0 and <10)
O[C@H]1CC[C@H](c2cnc(OC3CCNCC3)c3cnc(NC4CCC(F)(F)CC4)nc32)CC1 [Compound 164] | 100 to 1000 nM | ≤ 100 nM | ++ (a ratio of between 10 and 100)
CCCC(C)Nc1ncc2c(NC3CCN(C(=O)C(F)(F)F)CC3)ncc([C@H]3CC[C@H](O)CC3)c2n1 (stereo partly drawn) [Compound 165] | ≤ 100 nM | ≤ 100 nM | +++ (a ratio of >100)
CCCC(C)Nc1ncc2c(OC3CCNCC3)ncc([C@H]3CC[C@H](O)CC3)c2n1 (stereo partly drawn) [Compound 166] | ≤ 100 nM | ≤ 100 nM | +++ (a ratio of >100)
CC1CC(Nc2ncc3c(OC4CCNCC4)ncc([C@H]4CC[C@H](O)CC4)c3n2)C1 (stereo partly drawn) [Compound 167] | ≤ 100 nM | ≤ 100 nM | ++ (a ratio of between 10 and 100)
CC1CC(Nc2ncc3c(OC4CCNCC4)ncc([C@H]4CC[C@@H](O)CC4)c3n2)C1 (stereo partly drawn) [Compound 168] | ≤ 100 nM | ≤ 100 nM | ++ (a ratio of between 10 and 100)

Structure (SMILES) | IC50 [1] | IC50 [2] | Mer/Flt3 ratio (FLT3 IC50/Mer IC50) [2]
CCCC(C)Nc1ncc2c(=O)n(CCN(C)C)cc([C@H]3CC[C@H](O)CC3)c2n1 (stereo partly drawn) [Compound 169] | ≤ 100 nM | ≤ 100 nM | +++ (a ratio of >100)
CCCC(C)Nc1ncc2c(OC3CCN(CCC(=O)N(C)C)CC3)ncc([C@H]3CC[C@H](O)CC3)c2n1 (stereo partly drawn) [Compound 170] | ≤ 100 nM | ≤ 100 nM | +++ (a ratio of >100)
CCC[C@H](C)Nc1ncc2c(OC3CCNCC3)ncc([C@H]3CC[C@H](O)CC3)c2n1 [Compound 171] | ≤ 100 nM | ≤ 100 nM | +++ (a ratio of >100)
CCCC(C)Nc1ncc2c(OC3CCN(CC(=O)N(C)C)CC3)ncc([C@H]3CC[C@H](O)CC3)c2n1 (stereo partly drawn) [Compound 172] | ≤ 100 nM | ≤ 100 nM | +++ (a ratio of >100)
CCCC(C)Nc1ncc2c(OC3CCN(CCOC)CC3)ncc([C@H]3CC[C@H](O)CC3)c2n1 (stereo partly drawn) [Compound 173] | ≤ 100 nM | ≤ 100 nM | +++ (a ratio of >100)
CCCC(C)Nc1ncc2c(O[C@@H]3C[C@H]4CC[C@@H](C3)O4)ncc([C@H]3CC[C@H](O)CC3)c2n1 (stereo partly drawn) [Compound 174] | 100 to 1000 nM | ≤ 100 nM | ++ (a ratio of between 10 and 100)
CCCC(C)Nc1ncc2c(O[C@H]3C[C@H]4CC[C@@H](C3)O4)ncc([C@H]3CC[C@H](O)CC3)c2n1 (stereo partly drawn) [Compound 175] | 100 to 1000 nM | ≤ 100 nM | ++ (a ratio of between 10 and 100)
CCCC(C)Nc1ncc2c(O[C@H]3C[C@@H](O)C3)ncc([C@H]3CC[C@H](O)CC3)c2n1 (stereo partly drawn) [Compound 176] | ≤ 100 nM | ≤ 100 nM | +++ (a ratio of >100)
CCCC(C)Nc1ncc2c(=O)n(CCN3CCOCC3)cc([C@H]3CC[C@H](O)CC3)c2n1 (stereo partly drawn) [Compound 177] | ≤ 100 nM | ≤ 100 nM | +++ (a ratio of >100)
CC(C)C(C)Nc1ncc2c(OC3CCNCC3)ncc([C@H]3CC[C@H](O)CC3)c2n1 (stereo partly drawn) [Compound 178] | ≤ 100 nM | ≤ 100 nM | +++ (a ratio of >100)
CCCC(C)Nc1ncc2c(N(C)C3CCNCC3)ncc([C@H]3CC[C@H](O)CC3)c2n1 (stereo partly drawn) [Compound 179] | ≤ 100 nM | ≤ 100 nM | ++ (a ratio of between 10 and 100)
CCCC(C)Nc1ncc2c(N3CCC[C@H](N(C)C)C3)ncc([C@H]3CC[C@H](O)CC3)c2n1 (stereo partly drawn) [Compound 180] | ≤ 100 nM | ≤ 100 nM | +++ (a ratio of >100)
CCCC(C)Nc1ncc2c(N3CC(N(C)C)C3)ncc([C@H]3CC[C@H](O)CC3)c2n1 (stereo partly drawn) [Compound 181] | > 10000 nM | ≤ 100 nM | ++ (a ratio of between 10 and 100)
CCCC(C)Nc1ncc2c(OCCN3CCOCC3)ncc([C@H]3CC[C@H](O)CC3)c2n1 (stereo partly drawn) [Compound 182] | 100 to 1000 nM | ≤ 100 nM | ++ (a ratio of between 10 and 100)
O[C@H]1CC[C@H](c2cnc(OC3CCNCC3)c3cnc(NC4CCCCC4)nc32)CC1 [Compound 183] | > 10000 nM | ≤ 100 nM | ++ (a ratio of between 10 and 100)
